Read-outs that look alike come from different tables or passages of the source.
Legend:
[1] = tested on: phosphorylation of Cdc2 Y15 (Wee1 substrate) in A427 cells; assay: Phosphorylated Cdc2 MSD Electrochemiluminescence Assay; assay type: cell-based; details: Homo sapiens
In short: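 A427 cells (RPMI 1640, 10% FBS) treated 20 h after plating with 3-fold serial compound dilutions, in duplicate, 37 °C, 5% CO2; total incubation 6 h. Lysate Cdc2 pY15 read by MSD electrochemiluminescence sandwich immunoassay; % remaining signal normalised to DMSO (high) and reference Wee1 inhibitor (low) controls.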

Wee1 kinase domain = target: T1, Wee1 kinase domain (Homo sapiens, UniProt P30291); assay: Wee1 Kinase Biochemical Assay (ADP-Glo); details: 15 uM ATP
T1 construct: Wee1 kinase domain was purchased from Carna (catalog #05-177); purchased Carna 05-177
T1 sequence (P30291 299-569 limits assumed): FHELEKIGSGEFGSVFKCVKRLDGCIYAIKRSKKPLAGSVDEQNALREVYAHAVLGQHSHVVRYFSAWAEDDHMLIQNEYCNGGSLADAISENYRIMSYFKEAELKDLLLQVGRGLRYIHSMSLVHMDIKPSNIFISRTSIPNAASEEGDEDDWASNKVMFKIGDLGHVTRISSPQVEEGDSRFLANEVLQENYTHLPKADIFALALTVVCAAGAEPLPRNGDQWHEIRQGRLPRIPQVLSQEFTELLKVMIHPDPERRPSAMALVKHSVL
In short: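 Poly(Lys,Tyr 4:1) phosphorylation by the kinase domain is followed as ADP output (ADP-Glo) after 4 h at 25 °C, with ATP at 15 uM. Values are percent inhibition between vehicle and full-inhibition controls.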

[2] = A-427, class symbols, read-out: A427 pCDC2 MSD IC50
[3] = class symbols, 1 nM Wee1 enzyme, 4 hours at 25° C.

Structure (SMILES)	IC50 ([1]; A-427, pCDC2 MSD) [nM]	IC50 (Wee1 kinase domain; Wee1 kinase domain, ADP-Glo) [nM]	IC50 [1, 2] [nM]	IC50 (Wee1 kinase domain; [3]) [nM]
CNCc1cccc(N2c3nc(Nc4ccc(S(C)(=O)=O)cc4)ncc3[C@@]3(C)COC(C)(C)C[C@@H]23)n1 (single isomer, unassigned) [Example 34]	100 to 1000	< 10		
CN(C)Cc1cccc(N2c3nc(Nc4ccc(C(C)(C)C(=O)O)cc4)ncc3[C@@]3(C)COC(C)(C)C[C@@H]23)n1 [Example 611]			1000 to 10000	< 10
Cc1cc(Nc2ncc3c(n2)N(c2cccc(N=S(C)(C)=O)n2)[C@@H]2CC(C)(C)OC[C@]32C)cnn1 (single isomer, unassigned) [Example 370]	100 to 1000	< 10		
CNCc1cccc(N2c3nc(Nc4ccc(-c5cnn(C)c5)nc4)ncc3[C@@]3(C)COC(C)(C)C[C@@H]23)n1 (single isomer, unassigned) [Example 460]			100 to 1000	< 10
Cn1ccc(Nc2ncc3c(n2)N(c2cccc(P(C)(C)=O)n2)[C@@H]2CC(C)(C)OC[C@]32C)cc1=O (single isomer, unassigned) [Example 779]			< 100	< 10
CC1(C)C[C@H]2N(c3cccc(N=S(C)(C)=O)n3)c3nc(Nc4ccc([C@]5(C)CCNC5)cc4)ncc3[C@@]2(C)CO1 (single isomer, unassigned) [Example 171]	100 to 1000	< 10		
CNC1(c2cccc(N3c4nc(Nc5ccc(C6CCN(C)CC6)c(C)c5)ncc4[C@]4(C)COC(C)(C)C[C@H]34)n2)CC1 (single isomer, unassigned) [Example 574]			100 to 1000	10 to 100
Cc1cc(Nc2ncc3c(n2)N(c2cccc(N4C(=O)OC[C@@H]4C)n2)[C@@H]2CC(C)(C)OC[C@]32C)ccc1O[C@@H]1CCNC1 (single isomer, unassigned) [Example 337]	100 to 1000	< 10		
CNCc1cccc(N2c3nc(Nc4ccn([C@@H]5CCOC5)c(=O)c4)ncc3[C@@]3(C)COC(C)(C)C[C@@H]23)n1 (single isomer, unassigned) [Example 388]	100 to 1000	< 10		
CN1C[C@@H]2C[C@H]1CN2c1ccc(Nc2ncc3c(n2)N(c2cccc(N=S(C)(C)=O)n2)[C@@H]2CC(C)(C)OC[C@]32C)cc1F (single isomer, unassigned) [Example 180]	100 to 1000	< 10		
CC1(C)C[C@H]2N(c3cccc(N=S(C)(C)=O)n3)c3nc(Nc4ccc(C5CNC5)cc4)ncc3[C@@]2(C)CO1 (single isomer, unassigned) [Example 163]	< 100	< 10		
CN1CCC(c2ccc(Nc3ncc4c(n3)N(c3cccc(N=S(C)(C)=O)n3)[C@@H]3CC(C)(C)OC[C@]43C)cn2)CC1 (single isomer, unassigned) [Example 140]	< 100	< 10		
CNCc1cccc(N2c3nc(Nc4ccc(C5CCN(C)CC5)c(C)c4)ncc3[C@@]3(C)COC(C)(C)C[C@@H]23)n1 (single isomer, unassigned) [Example 72]	100 to 1000	< 10		
CN1C[C@H]2C[C@@H]1CN2c1ccc(Nc2ncc3c(n2)N(c2cccc(N=S(C)(C)=O)n2)[C@@H]2CC(C)(C)OC[C@]32C)cc1F (single isomer, unassigned) [Example 176]	100 to 1000	< 10		
Cn1ccc(Nc2ncc3c(n2)N(c2cccc(N=S(C)(C)=O)n2)[C@@H]2CC(C)(C)OC[C@]32C)cc1=O (single isomer, unassigned) [Example 363]	100 to 1000	< 10		
CN1CC2CC1CN2c1ccc(Nc2ncc3c(n2)N(c2cccc(N=S(C)(C)=O)c2)C2CC(C)(C)OCC32C)cc1 (single isomer, unassigned) [Example 712]			1000 to 10000	< 10
Cc1ncc(Nc2ncc3c(n2)N(c2cccc(N=S(C)(C)=O)n2)[C@@H]2CC(C)(C)OC[C@]32C)cn1 (single isomer, unassigned) [Example 373]	100 to 1000	< 10		
Cc1cncc(Nc2ncc3c(n2)N(c2cccc(N=S(C)(C)=O)n2)[C@@H]2CC(C)(C)OC[C@]32C)c1 (single isomer, unassigned) [Example 492]			< 100	< 10
CNCc1cccc(N2c3nc(NC(=O)[C@@H]4C[C@H]4c4cccnc4)ncc3[C@@]3(C)COC(C)(C)C[C@@H]23)n1 [Example 768, (1R,2R)-2-(pyridin-3-yl)-N-((4bR,8aR)-4b,7,7-trimethyl-9-(6-((methylamino)methyl)pyridin-2-yl)-4b,5,7,8,8a,9-hexahydropyrano[3′,4′:4,5]pyrrolo[2,3-d]pyrimidin-2-yl)cyclopropane-1-carboxamide]			100 to 1000	< 10

More lines, now with the values ahead:

IC50 ([1]; A-427, pCDC2 MSD) [nM]	IC50 (Wee1 kinase domain; Wee1 kinase domain, ADP-Glo) [nM]	IC50 [1, 2] [nM]	IC50 (Wee1 kinase domain; [3]) [nM]	Structure (SMILES)
		100 to 1000	< 10	CN1C[C@@H]2CN(c3ccc(Nc4ncc5c(n4)N(c4cccc(N6CCOC6=O)n4)[C@@H]4CC(C)(C)OC[C@]54C)cc3)C[C@@H]2C1 [Example 692, 3-(6-((4bR,8aR)-4b,7,7-trimethyl-2-((4-((3aR,6aS)-5-methylhexahydropyrrolo[3,4-c]pyrrol-2(1H)-yl)phenyl)amino)-4b,7,8,8a-tetrahydropyrano[3′,4′:4,5]pyrrolo[2,3-d]pyrimidin-9(5H)-yl)pyridin-2-yl)oxazolidin-2-one]
		100 to 1000	< 10	CN1C[C@@H]2C[C@H]1CN2c1ccc(Nc2ncc3c(n2)N(c2cccc(N4CCOC4=O)n2)[C@@H]2CC(C)(C)OC[C@]32C)cc1F [Example 676, 3-(6-((4bR,8aR)-2-((3-fluoro-4-((1S,4S)-5-methyl-2,5-diazabicyclo[2.2.1]heptan-2-yl)phenyl)amino)-4b,7,7-trimethyl-4b,7,8,8a-tetrahydropyrano[3′,4′:4,5]pyrrolo[2,3-d]pyrimidin-9(5H)-yl)pyridin-2-yl)oxazolidin-2-one]
100 to 1000	< 10			C[C@H]1COC(=O)N1c1cccc(N2c3nc(Nc4ccc(C5(C)COC5)cc4)ncc3[C@@]3(C)COC(C)(C)C[C@@H]23)n1 (single isomer, unassigned) [Example 303]
< 100	< 10			CNCc1cccc(N2c3nc(Nc4ccc([C@@H]5CC(=O)N(C)C5)cc4)ncc3[C@@]3(C)COC(C)(C)C[C@@H]23)n1 (single isomer, unassigned) [Example 69]
		100 to 1000	< 10	CC1(C)C[C@H]2N(c3cccc(C4CCNCC4)n3)c3nc(Nc4ccc(N5CCOCC5)cc4)ncc3[C@@]2(C)CO1 (single isomer, unassigned) [Example 531]
		100 to 1000	< 10	C[C@H]1CCC(=O)N1c1cccc(N2c3nc(Nc4ccc(N5C[C@@H]6C[C@H]5CN6C)cc4)ncc3[C@@]3(C)COC(C)(C)C[C@@H]23)n1 [Example 651, (S)-5-methyl-1-(6-((4bR,8aR)-4b,7,7-trimethyl-2-((4-((1S,4S)-5-methyl-2,5-diazabicyclo[2.2.1]heptan-2-yl)phenyl)amino)-4b,7,8,8a-tetrahydropyrano[3′,4′:4,5]pyrrolo[2,3-d]pyrimidin-9(5H)-yl)pyridin-2-yl)pyrrolidin-2-one]
100 to 1000	< 10			C[C@H]1COC(=O)N1c1cccc(N2c3nc(Nc4ccc(OC5CNC5)nc4)ncc3[C@@]3(C)COC(C)(C)C[C@@H]23)n1 (single isomer, unassigned) [Example 343]
< 100	< 10			C[C@H]1COC(=O)N1c1cccc(N2c3nc(Nc4ccc([C@@H]5CCN(C)C5)nc4)ncc3[C@@]3(C)COC(C)(C)C[C@@H]23)n1 (single isomer, unassigned) [Example 265]
		100 to 1000	< 10	CN1C[C@@H]2C[C@H]1CN2c1ccc(Nc2ncc3c(n2)N(c2cccc(N4CCOC4=O)n2)[C@@H]2CC(C)(C)OC[C@]32C)cc1 (single isomer, unassigned) [Example 595]
		100 to 1000	< 10	CN(C)Cc1cccc(N2c3nc(Nc4ccc(N5CCOCC5)cc4)ncc3[C@@]3(C)COC(C)(C)C[C@@H]23)n1 (single isomer, unassigned) [Example 523]
		100 to 1000	< 10	CC1(C)C[C@H]2N(c3cccc(N=S(C)(C)=O)n3)c3nc(Nc4ccc(N5CC6(CNC6)C5)cc4)ncc3[C@@]2(C)CO1 (single isomer, unassigned) [Example 494]
		100 to 1000	< 10	CC1(C)C[C@H]2N(c3cccc(N4CCOC4=O)n3)c3nc(Nc4ccc([C@H]5CCNC5)cc4)ncc3[C@@]2(C)CO1 (single isomer, unassigned) [Example 608]
		100 to 1000	< 10	CN1CCN(c2ccc(Nc3ncc4c(n3)N(c3cccc(C5CC5)n3)[C@@H]3CC(C)(C)OC[C@]43C)cc2)CC1 (single isomer, unassigned) [Example 774]
		100 to 1000	< 10	CN=[S@](C)(=O)c1cccc(N2c3nc(Nc4ccc(C5CCN(C)CC5)cc4)ncc3[C@@]3(C)COC(C)(C)C[C@@H]23)n1 (single isomer, unassigned) [Example 751]
100 to 1000	< 10			C[C@H]1COC(=O)N1c1cccc(N2c3nc(Nc4ccc(O[C@H]5CCNC5)cc4)ncc3[C@@]3(C)COC(C)(C)C[C@@H]23)n1 (single isomer, unassigned) [Example 329]
		100 to 1000	< 10	CN1CCC(c2ccc(Nc3ncc4c(n3)N(c3cccc(N5CCOC5=O)n3)[C@@H]3CC(C)(C)OC[C@]43C)cc2)CC1 (single isomer, unassigned) [Example 591]
